This passage reports inhibition and IC50 results from patent US5468760A, “Aralkyl-N-hydroxyureas as inhibitors of 5-lipoxygenase and oxidation of low density lipoprotein” (American Home Products Corporation, priority 1993, dated 1995).

In one assay the target is T1, 5-Lipoxygenase (Homo sapiens, UniProt P09917).
T1 construct: endogenous in cells; host or cells: human whole blood from male donors (results expressed per 10^6 neutrophils)
T1 sequence (P09917 1-674): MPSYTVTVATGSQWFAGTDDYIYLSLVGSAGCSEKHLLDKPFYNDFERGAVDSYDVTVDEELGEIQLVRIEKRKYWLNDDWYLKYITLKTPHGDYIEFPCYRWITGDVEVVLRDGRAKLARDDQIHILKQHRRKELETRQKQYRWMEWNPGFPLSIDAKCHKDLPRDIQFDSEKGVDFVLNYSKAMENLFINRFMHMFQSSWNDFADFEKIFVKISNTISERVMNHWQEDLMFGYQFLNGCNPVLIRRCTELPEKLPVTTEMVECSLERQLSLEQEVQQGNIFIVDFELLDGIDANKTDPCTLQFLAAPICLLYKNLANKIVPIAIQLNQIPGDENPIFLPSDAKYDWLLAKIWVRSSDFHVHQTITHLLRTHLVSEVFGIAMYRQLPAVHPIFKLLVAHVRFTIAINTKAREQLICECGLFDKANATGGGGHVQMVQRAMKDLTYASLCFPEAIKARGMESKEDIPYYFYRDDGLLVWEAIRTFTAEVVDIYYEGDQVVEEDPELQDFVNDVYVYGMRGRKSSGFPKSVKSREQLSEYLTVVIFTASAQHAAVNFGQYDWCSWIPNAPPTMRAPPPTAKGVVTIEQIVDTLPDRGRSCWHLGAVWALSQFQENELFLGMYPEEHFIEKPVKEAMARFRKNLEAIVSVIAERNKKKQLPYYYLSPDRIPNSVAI
The assay is described as follows: Inhibition of 5-Lipoxygenase in Human Whole Blood (LTB4, calcium ionophore A23187). It is filed as cell-based. The following applies: 1 μM. How it is done:
1. Inhibition of 5-Lipoxygenase in Human Whole Blood
Blood is obtained in 50-100 ml quantities from male donors. White blood cell counts and differentials are made. Two ml of blood are placed in a 15 ml polypropylene test tube. Test compounds are solubilized in dimethylsulfoxide and diluted in 1:10 in 10% bovine serum albumin in phosphate buffered saline, pH 7.4 resulting in a final dimethylsulfoxide concentration of 0.1% in the blood. Then, solutions of test compounds are added to the blood in a shaking water bath at 37° C. for 10 minutes prior to the addition of 30 μM calcium ionophore (A23 187, Sigma). After ionophore administration, whole blood samples are mixed and incubated for 20 minutes at 37° C. in a shaking water bath. Incubation is terminated by placing samples in an ice bath and immediately adding ethylene glycol-bis-(β-aminoethyl ether)-N,N,N',N'-tetraaceticacid (10 mM). Samples are mixed and centrifuged at 1200 x g for 15 minutes at 4° C. Preparation of samples for evaluation by RIA or ELISA is carried out by the following protocol. Plasma is removed from sample tubes, placed in 15 ml polypropylene test tubes containing 8 ml methanol, and then vortexed to precipitate protein. Samples are stored at -70° C. overnight. The next day, samples are centrifuged at 200 x g for 15 minutes at 4° C. to pellet the precipitate. Samples are dried in a Savant SpeedVac Concentrator, Model SVC 200H, reconstituted to original volume with ice cold RIA or ELISA buffer, and stored at -70° C. until assayed. The assay for eicosanoids (LTB4, TxB2, and PGE2) is performed as described by the manufacturer of the [^3 H]-RIA kit or ELISA kit (LTB4 -Amersham, TxB2 and PGE2 -Caymen Chemical).
The total eicosanoid level in 2 ml of blood is calculated and reported as ng/10^6 neutrophils. Significance is determined by a one-way analysis of variance with least significant difference (LSD) comparisons to control (p≤0.05) and IC50 's (μM) are determined by regression analysis (Finney, 1978). Drug effects are expressed as percent change from control values.

Assay [1] relates to low density lipoprotein (LDL). Put plainly: Inhibition of Copper Ion Mediated Oxidation of Low Density Lipoprotein. The assay is classed as biochemical. As to conditions: Cu^+2 mediated oxidation of rabbit or monkey LDL; 37° C., 90 minutes; absorbance at 532 nm. How it is done:
5. Inhibition of Copper Ion Mediated Oxidation of Low Density Lipoprotein
In this in vitro assay, the inhibition of Cu^+2 mediated oxidation of rabbit or monkey LDL by an invention compound is determined spectrophotometricallly. Oxidation of LDL results in the formation of LDL-diene which absorbs light at 532 nm. Inhibition of oxidation of LDL leads to a decrease in absorbance at 532 nm.
Rabbit or monkey LDL is prepared according to the procedures of Havel, Eder and Gragdon, "The Distribution and Chemical Composition of Ultracentrifugally Separated Lipoproteins in Human Serum,: J. Clin. Invest. 34, 1345-1353 (1955) and Parhtasarathy, Wieland and Steriberg, "A Role for Endothelial Cell Lipoxygenase in the Oxidative Modification of Low Density Lipoprotein," Proc. Natl. Acad. Sci. USA 86, 1046-1050 (1989). Test compound solutions are prepared by dissolving the invention compounds in ethanol at concentrations up to 248 μM. The medium used is Dulbecco's phosphate buffered saline containing 0.5 mg/ml bovine serum albumin. For standards, 0 to 10 μl of an aqueous solution of 1,1,3,3-tetraethoxypropane (1 μmol/ml H2 O) in 4.1 ml of medium is used.
Test compound solution (100 μl) is added to 4 ml of medium in incubation tubes. To each tube is added 10 μl of LDL solution and 25 μl of aqueous copper sulfate solution (1.32 mg/ml H2 O). The tubes are incubated at 37° C. for 90 minutes and the oxidation reaction quenched by addition of 1 ml of thiobarbituric acid solution (0.67% in 50% acetic acid). The tubes are heated at 90° C. for 1 hour, then chilled in an ice bath and the chromophore extracted into 2 ml of n-butanol. Absorbence is read at 532 nm and the results are reported as nmols of malondialdehyde equivalents.
Significant differences (p<0.05) are determined by the Dunnett T-test or by the Student-Newman-Keuls Test for significant differences between means. The assay is conducted using several concentrations [I] of the inhibitor test compounds. […] The IC50 is determined by non-linear regression, plotting log [I] vs. % inhibition. […]

Turning to `Cc1oc(-c2ccccc2)nc1COc1cccc(CN(O)C(N)=O)c1` [Example 1, 1-Hydroxy-1-[3-(5-methyl-2-phenyl-oxazol-4-ylmethoxy)-benzyl]-urea], the inhibition at 1 µM at 5-Lipoxygenase was found to be 52%. Further, the midpoint of inhibition in assay [1], the IC50, lay at 640 nM.
Regarding `NC(=O)N(O)Cc1cccc(OCc2csc(-c3ccccc3)n2)c1` [Example 5, 1-Hydroxy-1-[3-(2-phenyl-thiazol-4-ylmethoxy)-benzyl]-urea], the inhibition at 1 µM on 5-Lipoxygenase was determined as 66%.
For the compound `NC(=O)N(O)Cc1cccc(OCc2csc(-c3ccc(Cl)cc3)n2)c1` [Example 6, 1-Hydroxy-1-[3-[2-(4-chloro-phenyl)-thiazol-4-ylmethoxy]-benzyl]-urea], on 5-Lipoxygenase, the inhibition at 1 µM was determined as 68%. For the same compound, the IC50 in assay [1] is 590 nM.
The matching figures for `Cc1oc(-c2ccc(F)cc2)nc1COc1cccc(CN(O)C(N)=O)c1` [Example 9, 1-[3-[2-(4-fluorophenyl)-5-methyl-oxazol-4-ylmethoxy]-benzyl]-1-hydroxy-urea]: 74% and 570 nM.
As for `Cc1oc(-c2ccccc2)nc1COc1cc(F)cc(CN(O)C(N)=O)c1` [Example 13, 1-[3-Fluoro-5-(5-methyl-2-phenyl-oxazol-4-ylmethoxy)-benzyl]-1-hydroxy-urea], on 5-Lipoxygenase, the inhibition at 1 µM amounted to 70%.

Usually inhibition stands for the relative decrease from the control value, in per cent. By IC50 is commonly meant the point on the concentration scale where inhibition reaches its midpoint.
